Results reported in patent US20210238173A1, “MITOGEN-ACTIVATED PROTEIN KINASE KINASE 7 INHIBITORS” (Yeda Research and Development Co. Ltd., priority 2018, published 2021).
pEC50, pIC50: −log10 of the molar value. “And” between values parts separate entries of the source, which are not always exact repeats. Equal values may be shown once. Read-outs that look alike come from different tables or passages of the source.

Legend:
MKK7 = biological target: T1, MKK7 (Homo sapiens, UniProt O14733); assay: In vitro kinase activity assay for MKK7 (Nanosyn); assay type: biochemical
T1 construct: purchased Nanosyn (contract assay)
T1 sequence (O14733 1-419): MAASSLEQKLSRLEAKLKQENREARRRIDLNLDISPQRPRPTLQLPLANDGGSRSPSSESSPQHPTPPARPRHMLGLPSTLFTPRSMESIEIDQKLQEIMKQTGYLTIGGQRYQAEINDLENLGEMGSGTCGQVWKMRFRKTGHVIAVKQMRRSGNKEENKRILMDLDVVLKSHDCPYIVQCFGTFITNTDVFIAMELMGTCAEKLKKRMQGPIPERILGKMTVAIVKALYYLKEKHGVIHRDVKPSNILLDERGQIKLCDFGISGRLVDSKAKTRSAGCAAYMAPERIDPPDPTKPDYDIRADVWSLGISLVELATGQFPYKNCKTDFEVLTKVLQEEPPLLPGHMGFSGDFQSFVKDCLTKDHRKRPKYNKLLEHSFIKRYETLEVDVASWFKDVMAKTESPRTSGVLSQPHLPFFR
Procedure: Based on visual inspection of the top 500 predictions, 10 compounds were selected for synthesis and testing (see, Table 1). The “Docking rank” is given in its respective run, whereas four virtual libraries of acrylamides were docked separately, based on the amine precursor for the acrylamide (primary or secondary aliphatic amines, primary or secondary aromatic amines). In vitro kinase activity assay was carried out by Nanosyn, as described below.
(§1) In Vitro Activity Assays for MKK7 or MKK4 (Carried by Nanosyn):
(§2) Exemplary test compounds, according to some embodiments of the present invention, were diluted in DMSO to a final concentration that ranged from 10 μM to 0.0565 nM, while final concentration of DMSO in all assays was kept at 1%. Reference compound, Staurosporine, was tested in a similar manner. […] After incubation, activity of now activated JNK1 was tested in the presence of 30 μM ATP ATP for 17 h (MKK7) or 4 h (MKK4).

MKK4 = biological target: T2, MKK4 (Homo sapiens, UniProt P45985); assay: In vitro activity assay for MKK4 (Nanosyn); assay type: biochemical
T2 construct: purchased Nanosyn (contract assay)
T2 sequence (P45985 1-399): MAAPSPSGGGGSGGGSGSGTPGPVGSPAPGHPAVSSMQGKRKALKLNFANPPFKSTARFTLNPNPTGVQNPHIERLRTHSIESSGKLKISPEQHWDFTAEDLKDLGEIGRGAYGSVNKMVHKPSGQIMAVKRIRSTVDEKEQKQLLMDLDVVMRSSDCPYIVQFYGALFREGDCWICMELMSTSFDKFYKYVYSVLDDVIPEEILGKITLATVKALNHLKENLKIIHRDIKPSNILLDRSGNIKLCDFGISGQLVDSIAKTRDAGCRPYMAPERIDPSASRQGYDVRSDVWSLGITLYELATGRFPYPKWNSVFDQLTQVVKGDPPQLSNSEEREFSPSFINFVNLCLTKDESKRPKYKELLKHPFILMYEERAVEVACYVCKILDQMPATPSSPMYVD
Procedure: as §1, §2

pJNK in HEK293 cells = assay: In-cell western (ICW) pJNK inhibition in HEK293; assay type: cell-based; details: 2 h pre-incubation, sorbitol stimulation
Procedure: (§3) HEK293, Beas2B and 3T3 cells were plated 24 hours before procedure on 384 well clear bottom black flat plates (Corning) pre-coated with Fibronectin (Sigma) diluted in PBS to a concentration of 5 μg/ml 45 minutes prior to cells introduction. Cells were plated using Multidrop™ Combi reagent dispenser (Thermo Fisher Scientific). Compound, reagents and antibody dispensing as well as washes were performed with a CyBio liquid handler (Analytik). Cells were pre-incubated with a small molecule or up to 1% DMSO for 2 h before fixation. HEK293, 3T3 or Beas2B cells were treated with 0.6M/0.2M/0.2M D-Sorbitol/PBS (Sigma) for 20/40/40 min. respectively, before fixation. Media was removed and wells were immediately fixed with 150 μl per well of 3.7% formaldehyde/PBS fixing solution for 20 min. Formaldehyde was then aspired and cells were permeabilized with 150 μl of 0.5% Triton x-100/PBS solution for 10 min. After aspiration cells were washed with ice-cold methanol and stored at −20° C., for 10 min. Methanol was aspired and cells were blocked with 150 μl blocking buffer (LICOR) for 90 min. Primary antibody Phospho-SAPK/JNK T183/Y185 (CST; 9251S) was diluted 1:1000 in blocking buffer and was applied 50 μl per well, except control wells to which only blocking buffer was applied, O.N. (16 h) at 4° C. with mild shaking. Primary antibody was aspired, wells were washed with 150 μl 0.1% Tween20/PBS (Sigma) washing solution three times for 7 min. IRDye® 800CW Goat anti-Rabbit IgG Secondary antibody (LICOR) was then diluted 1:1200 in blocking buffer with 50 μl applied per well on control wells only (no CellTag control), then CellTag700 (1:2000) was added to the solution and 50 μl were added to all experiment wells, for 1 h at room temperature. Wells were aspired and washed again with 150 μl 0.1% Tween20/PBS (Sigma) washing solution three times for 7 min. plate was dried and scanned with Odyssey CLx imaging system at 700 nm and 800 nm (Licor). Wells signals were analyzed with Odyssey software. The signal was normalized by the CellTag700 signal.
(§4) To rapidly assess the cellular activity (EC50) with full dose response curves of the MKK7 covalent inhibitors, according to some embodiments of the present invention, an in-cell western assay was adapted to a 384 well plate format over traditional western blot, and monitored phospho-JNK (pJNK) levels in response to osmotic shock. We first characterized the dynamics of pJNK in response to sorbitol. Sufficient dynamic range for pJNK is achieved at 20 minutes in HEK293 cells and at 40 minutes in 3T3 and Beas2B cells. The compound's activity was assessed by pre-treating cells with either compound or DMSO for 2 hours, followed by Sorbitol stimulation. The response of pJNK, and its substrates, pc-Jun and pATF2, was measured, as well as pP38, which is a substrate of MKK4 but not MKK7, and pERK in HEK293 cells, and the results are presented in Table 5 below.

pJNK in 3T3 WT cells = assay: In-cell western (ICW) pJNK inhibition in 3T3 WT; assay type: cell-based; details: 3T3 WT, sorbitol stimulation
Procedure: as §3, §4
Wildtype 3T3 cells, 3T3 MKK7 double knock-out (MKK7^−/−) cells and MKK4/7 double knockouts (MKK4/7^−/−) were used to validate on target activity of the MKK7 covalent inhibitors presented herein.

[1] = Metabolic stability in mouse liver microsomes; assay type: in vitro ADME; details: for half-life: mouse, liver microsomes
Source text: (§5) A reference compound, REF1250, was used in this study: […]

[2] = Metabolic stability in dog liver microsomes; assay type: in vitro ADME; details: for half-life: dog, liver microsomes
Source text: as §5

[3] = Metabolic stability in monkey liver microsomes; assay type: in vitro ADME
Source text: as §5

[4] = Metabolic stability in human liver microsomes; assay type: in vitro ADME; details: for half-life: human, liver microsomes
Source text: as §5

SMILES	pIC50 (MKK7; read-out: MKK7 IC50 in vitro)	pIC50 (MKK4)	pEC50 (pJNK in HEK293 cells; HEK293, ICW)	pEC50 (pJNK in 3T3 WT cells; ICW, 2 h pre-incubation)	pIC50 (pJNK in 3T3 WT cells)	% remaining @ 40 min [1]	half-life [1]	% remaining @ 40 min [2]	half-life [2]	% remaining @ 40 min [3]	half-life [3]	% remaining @ 40 min [4]	half-life [4]	potency towards MKK7 compared with Aurora kinase (MKK7; MKK7 nanomolar, Aurora kinase micromolar)	pIC50 (MKK7; read-out: MKK7 IC50)	pEC50 (pJNK in HEK293 cells; Homo sapiens, HEK293, HEK293, ICW)
C=CC(=O)Nc1cccc(-c2n[nH]c3c2CCCC3)c1 [GO4]	7.96	5.38	5.28	< 5.00	4.74	0%	< 5 min	0%	< 5 min	0%	< 5 min	0%	< 5 min	–	–	–
C=CC(=O)Nc1cccc(-c2n[nH]c3ccccc23)c1 [GO32]	8.22	5.38	5.69	–	5.29	0%	< 5 min	0%	< 5 min	0%	< 5 min	0%	< 5 min	at least two orders of magnitude	8.05	–
C=CC(=O)Nc1cccc(-c2n[nH]c3cc(C)ccc23)c1 [GO80]	8.30	5.11	5.89 and 6.10	–	5.39	0%	< 5 min	0%	< 5 min	0%	< 5 min	0%	< 5 min	–	–	5.90
